# Patent US11370773B1, “Inhibiting human integrin (alpha-4) (beta-7)” (Morphic Therapeutic, Inc., priority 2019, dated 2022)
# Target: T1, α4β7 (Homo sapiens, UniProt P13612+P26010)
# T1 construct: α4β7 expressing cells (RPMI-8866); endogenous in cells; host or cells: RPMI 8866
# T1 sequence (P13612 34-1032): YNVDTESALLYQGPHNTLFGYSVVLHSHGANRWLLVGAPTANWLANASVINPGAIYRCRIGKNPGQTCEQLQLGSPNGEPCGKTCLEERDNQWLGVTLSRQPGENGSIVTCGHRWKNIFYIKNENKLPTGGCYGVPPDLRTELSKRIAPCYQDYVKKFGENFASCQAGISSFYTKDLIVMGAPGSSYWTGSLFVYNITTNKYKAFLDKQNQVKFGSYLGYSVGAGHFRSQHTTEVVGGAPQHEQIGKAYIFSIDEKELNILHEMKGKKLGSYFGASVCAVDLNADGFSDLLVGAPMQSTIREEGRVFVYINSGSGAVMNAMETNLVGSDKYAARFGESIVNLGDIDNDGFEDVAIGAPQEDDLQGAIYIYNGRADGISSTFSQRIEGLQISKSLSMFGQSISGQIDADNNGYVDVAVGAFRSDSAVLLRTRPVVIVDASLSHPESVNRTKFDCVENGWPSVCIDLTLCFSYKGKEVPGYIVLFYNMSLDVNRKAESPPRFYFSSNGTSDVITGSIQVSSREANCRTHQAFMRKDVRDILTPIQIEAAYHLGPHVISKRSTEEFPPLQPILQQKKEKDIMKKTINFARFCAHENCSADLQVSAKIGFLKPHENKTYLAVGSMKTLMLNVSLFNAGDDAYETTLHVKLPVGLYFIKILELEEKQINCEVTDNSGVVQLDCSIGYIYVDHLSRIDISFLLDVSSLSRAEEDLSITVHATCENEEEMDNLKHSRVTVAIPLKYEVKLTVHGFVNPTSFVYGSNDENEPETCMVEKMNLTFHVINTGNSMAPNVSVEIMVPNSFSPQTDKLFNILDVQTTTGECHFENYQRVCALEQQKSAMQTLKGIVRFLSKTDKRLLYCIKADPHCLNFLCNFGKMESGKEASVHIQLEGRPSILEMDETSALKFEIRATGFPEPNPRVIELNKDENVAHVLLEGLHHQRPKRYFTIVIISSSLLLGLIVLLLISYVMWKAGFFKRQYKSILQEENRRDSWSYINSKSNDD
# T1 sequence (P26010 20-798): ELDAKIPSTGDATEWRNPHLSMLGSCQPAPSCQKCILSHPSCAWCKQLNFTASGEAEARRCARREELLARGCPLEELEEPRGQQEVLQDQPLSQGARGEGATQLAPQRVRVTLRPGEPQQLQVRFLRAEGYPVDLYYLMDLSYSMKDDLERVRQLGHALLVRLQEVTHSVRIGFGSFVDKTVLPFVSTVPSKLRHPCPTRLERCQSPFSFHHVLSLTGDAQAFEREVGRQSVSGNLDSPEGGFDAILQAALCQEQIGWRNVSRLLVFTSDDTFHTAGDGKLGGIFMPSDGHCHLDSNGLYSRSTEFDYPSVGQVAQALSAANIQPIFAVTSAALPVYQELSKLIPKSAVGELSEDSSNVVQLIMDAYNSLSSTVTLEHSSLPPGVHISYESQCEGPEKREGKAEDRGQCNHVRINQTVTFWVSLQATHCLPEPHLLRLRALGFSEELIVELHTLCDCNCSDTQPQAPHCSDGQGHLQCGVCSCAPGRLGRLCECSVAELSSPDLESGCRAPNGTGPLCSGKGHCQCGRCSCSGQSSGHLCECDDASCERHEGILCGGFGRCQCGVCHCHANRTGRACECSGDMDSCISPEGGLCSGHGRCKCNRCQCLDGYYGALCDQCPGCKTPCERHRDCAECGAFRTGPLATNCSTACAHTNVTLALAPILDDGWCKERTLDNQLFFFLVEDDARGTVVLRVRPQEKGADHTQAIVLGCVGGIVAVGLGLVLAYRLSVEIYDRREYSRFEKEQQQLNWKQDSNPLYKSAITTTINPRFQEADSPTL
# Assay: Cell-based ligand binding assay (LBA), RPMI 8866 cells in competition with soluble MAdCAM-1-Fc
# Conditions: MAdCAM-1-Fc Dylight 650, flow cytometry, read-out: LB Assay (Example 6) IC50
# Method: Three in vitro assays were used to examine the α4β7 mechanistic process used by cells: 1) ligand:receptor affinity, 2) the avidity of those interactions on a cell's surface, and 3) how those interactions fare under an imposing force. In Example 5, a Fluorescence Polarization (FP) assay is used to measure compound activity through binding competition with the fluorescein-labeled peptide. In Example 6, the potency of compounds against α4β7 is measured in the cell-based ligand binding assay (LBA), using RPMI 8866 cells incubated with the compound samples in competition with soluble MAdCAM-1 ligand. In Example 7, activity of compounds is evaluated in a cell adhesion assay that mechanistically tests what occurs in vivo when trafficking cells utilize α4β7 to adhere to MAdCAM-1 expressing HEVs of the gut during the extravasation process. In the cell adhesion assay of Example 7, a MAdCAM1-(Fc) is coated on plastic, and α4β7 expressing cells (RPMI-8866) are allowed to adhere to the coated surface in the presence of the test compounds. Next, the force of washing with buffer is applied to cells thereby testing the strength of that adhesion. Unattached cells are removed and the remaining adherent cells are quantified.
# 5 ul of 33 nM MAdCAM-1-Fc fluorescently labeled with Dylight 650 in 50 mM HEPES pH 7.3, 150 mM sodium chloride, and 1% bovine serum albumin was added to the cells. The samples were incubated for 45 minutes at room temperature, fixed with 0.8% formaldehyde for 30 minutes at room temperature, and washed with 50 mM Tris pH 7.5, 150 mM NaCl, 1 mM EDTA, and 1% bovine serum albumin. Fluorescence intensity for each cell was measured via flow cytometry. Dead cells were excluded from further analysis based on staining with the 780 fixable viability dye. Median fluorescence intensity for Dylight 650 was determined for each sample and concentration-response curves were analyzed for IC50 values using 4-parameter non-linear regression analysis.
row,SMILES,IC50 [nM]
1,"Cc1cc(F)c(C)c(C)c1-c1cc(C(F)(F)F)c(F)c([C@H](CC(=O)O)NC(=O)[C@H](CC(C)C)n2cc(CCN3CCC3)c(C(F)(F)F)cc2=O)c1F [KT-P2, (3S)-3-(2-(5-(2-(azetidin-1-yl)ethyl)-2-oxo-4-(trifluoromethyl)pyridin-1(2H)-yl)-4-methylpentanamido)-3-(2,4,4′-trifluoro-2′,3′,6′-trimethyl-5-(trifluoromethyl)-[1,1′-biphenyl]-3-yl)propanoic Acid]",10 to 500
2,"Cc1cc(C)c(-c2cc(C(F)(F)F)c(F)c([C@H](CC(=O)O)NC(=O)[C@H](CC(C)C)n3cc(CCN(C)C)c(C(F)(F)F)cc3=O)c2F)c(C)c1 [IF-P2, (3S)-3-(2,4-difluoro-2′,4′,6′-trimethyl-5-(trifluoromethyl)-[1,1′-biphenyl]-3-yl)-3-(2-(5-(2-(dimethylamino)ethyl)-2-oxo-4-(trifluoromethyl)pyridin-1(2H)-yl)-4-methylpentanamido)propanoic Acid]",10 to 500
3,"Cc1cc(C2CC2)cc(C)c1-c1cc(C(F)(F)F)c(F)c([C@H](CC(=O)O)NC(=O)[C@H](CC(C)C)n2cc(CCCN(C)C)c(C(F)(F)F)cc2=O)c1F [HU-P2, (3S)-3-(4′-cyclopropyl-2,4-difluoro-2′,6′-dimethyl-5-(trifluoromethyl)-[1,1′-biphenyl]-3-yl)-3-(2-(5-(3-(dimethylamino)propyl)-2-oxo-4-(trifluoromethyl)pyridin-1(2H)-yl)-4-methylpentanamido)propanoic Acid]",10 to 500
4,"Cc1cc(C)c(-c2cc(C3CC3)c(F)c([C@H](CC(=O)O)NC(=O)[C@H](CC(C)C)n3cc(CCN4CCC4)c(C(F)(F)F)cc3=O)c2F)c(C)c1 [HM-P2, (3S)-3-(2-(5-(2-(azetidin-1-yl)ethyl)-2-oxo-4-(trifluoromethyl)pyridin-1(2H)-yl)-4-methylpentanamido)-3-(5-cyclopropyl-2,4-difluoro-2′,4′,6′-trimethylbiphenyl-3-yl)propanoic Acid]",≤ 10
5,"Cc1cc(-c2c(C)ccc(F)c2C)cc([C@H](CC(=O)O)NC(=O)C(CC(C)C)n2cc(CCN3CCC3)c(C(F)(F)F)cc2=O)c1F (single isomer, unassigned) [AF-P2]",≤ 10
6,"Cc1cc(-c2c(C)cc(F)cc2C)cc([C@H](CC(=O)O)NC(=O)[C@H](CC(C)C)n2cc(CCN(C)C)cc(C(F)F)c2=O)c1F [I-P2, (3S)-3-(4,4′-difluoro-2′,5,6′-trimethyl-[1,1′-biphenyl]-3-yl)-3-(2-(3-(difluoromethyl)-5-(2-(dimethylamino)ethyl)-2-oxopyridin-1(2H)-yl)-4-methylpentanamido)propanoic Acid]",≤ 10
7,"Cc1ccn([C@@H](CC(C)C)C(=O)N[C@H](CC(=O)O)c2cncc(-c3c(C)cccc3C)c2)c(=O)c1 [Example C-28, reference compound]",10 to 500
8,"Cc1ccc(F)c(C)c1-c1cc(C2CC2)c(F)c([C@H](CC(=O)O)NC(=O)[C@H](CC(C)C)n2cc(CCN3CCC3)c(C(F)(F)F)cc2=O)c1F [HH-P2, (3S)-3-(2-(5-(2-(azetidin-1-yl)ethyl)-2-oxo-4-(trifluoromethyl)pyridin-1(2H)-yl)-4-methylpentanamido)-3-(5-cyclopropyl-2,3′,4-trifluoro-2′,6′-dimethyl-[1,1′-biphenyl]-3-yl)propanoic Acid]",≤ 10
9,"Cc1cc(F)cc(C)c1-c1cc(C(F)(F)F)c(F)c([C@H](CC(=O)O)NC(=O)[C@H](CC(C)C)n2cc(CCCN(C)C)c(C(F)(F)F)cc2=O)c1F [HW-P2, (3S)-3-(2-(5-(3-(dimethylamino)propyl)-2-oxo-4-(trifluoromethyl)pyridin-1(2H)-yl)-4-methylpentanamido)-3-(2,4,4′-trifluoro-2′,6′-dimethyl-5-(trifluoromethyl)-[1,1′-biphenyl]-3-yl)propanoic Acid]",≤ 10
10,"Cc1cc(C)c(-c2cc(C(F)(F)F)c(F)c([C@H](CC(=O)O)NC(=O)[C@H](CC(C)C)n3cc(CCN4CCC4)c(C(F)(F)F)cc3=O)c2F)c(C)c1 [IG-P2, (3S)-3-(2-(5-(2-(azetidin-1-yl)ethyl)-2-oxo-4-(trifluoromethyl)pyridin-1(2H)-yl)-4-methylpentanamido)-3-(2,4-difluoro-2′,4′,6′-trimethyl-5-(trifluoromethyl)biphenyl-3-yl)propanoic Acid]",10 to 500
11,"Cc1cc(C)c(-c2cc(C(F)(F)F)c(F)c([C@H](CC(=O)O)NC(=O)[C@H](CC(C)C)n3cc(CCCN(C)C)c(C(F)(F)F)cc3=O)c2F)c(C)c1 [HZ-P2, (3S)-3-(2,4-difluoro-2′,4′,6′-trimethyl-5-(trifluoromethyl)biphenyl-3-yl)-3-(2-(5-(3-(dimethylamino)propyl)-2-oxo-4-(trifluoromethyl)pyridin-1(2H)-yl)-4-methylpentanamido)propanoic Acid]",10 to 500
12,"Cc1cc(C)c(-c2cc(C)c(F)c([C@H](CC(=O)O)NC(=O)[C@H](CC(C)C)n3cc(CCCN(C)C)c(C(F)(F)F)cc3=O)c2F)c(C)c1F [IW-P2, (3S)-3-(2-(5-(3-(dimethylamino)propyl)-2-oxo-4-(trifluoromethyl)pyridin-1(2H)-yl)-4-methylpentanamido)-3-(2,3′,4-trifluoro-2′,4′,5,6′-tetramethyl-[1,1′-biphenyl]-3-yl)propanoic Acid]",10 to 500
13,"Cc1ccn([C@@H](NC(C)C)C(=O)N[C@@H](CC(=O)O)c2cncc(-c3c(C)cccc3C)c2)c(=O)c1 [Example C-7, reference compound]",≤ 10
